This passage reports IC50 results from the Kinase Knowledgebase extract (Sharma et al. 2016).

Values joined by “and” are separate entries in the source; they are usually repeats but may differ in a detail not shown here. Equal values may be shown once.

The target in the assay is MAPK14 (UniProt Q16539). Nature of the assay: Inhibition of MAPK14 Kinase Activity.
Sequence of MAPK14 (Q16539 whole entry, looked up): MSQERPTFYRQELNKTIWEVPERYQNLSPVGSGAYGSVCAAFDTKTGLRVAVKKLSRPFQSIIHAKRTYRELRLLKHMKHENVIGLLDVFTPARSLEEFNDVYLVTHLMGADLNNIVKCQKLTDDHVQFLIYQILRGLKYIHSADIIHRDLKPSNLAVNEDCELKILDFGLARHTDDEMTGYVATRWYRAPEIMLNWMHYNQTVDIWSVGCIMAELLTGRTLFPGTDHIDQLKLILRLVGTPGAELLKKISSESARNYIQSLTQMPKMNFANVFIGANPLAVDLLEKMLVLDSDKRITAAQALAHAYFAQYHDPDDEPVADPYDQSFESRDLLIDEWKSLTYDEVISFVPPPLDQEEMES
With `Cc1ccc(-n2nc(C(C)(C)C)cc2NC(=O)Nc2ccc(OC3CCN(C(=O)C4CC4)CC3)cc2)cc1`, the IC50 is < 5 µM.

For `Cn1nc(C(C)(C)C)cc1NC(=O)Nc1ccc(N2CCN(C(=O)c3c(Cl)cccc3Cl)CC2)cc1`, the IC50 was < 5 µM.

As to `Cc1cc(C(=O)N2CCC(Oc3cc(F)cc(NC(=O)Nc4cc(C(C)(C)C)nn4C)c3)CC2)c(C)[nH]1`, the IC50 is < 5 µM.

For `CO[C@H](C)C(=O)N1CCN(c2ccc(NC(=O)Nc3cc(C(C)(C)C)nn3-c3ccc(C)cc3)cc2)CC1`, the IC50 was < 5 µM.

Consider `COc1cccc(F)c1C(=O)N1CCC(Oc2cccc(NC(=O)Nc3cc(C(C)(C)C)nn3C)c2)CC1`, for which the IC50 is < 5 µM.

As to `Cn1nc(C(C)(C)C)cc1NC(=O)Nc1cc(F)cc(OC2CCN(C(N)=O)CC2)c1`, the half-maximal inhibitory concentration (IC50) was < 5 µM.

As to `COc1ccc(C(=O)N2CCC(Oc3ccc(NC(=O)Nc4cc(C(C)(C)C)nn4C)cc3)CC2)cn1`, the IC50 is < 5 µM.

For `Cn1nc(C(C)(C)C)cc1NC(=O)Nc1ccc(CN2CCN(C(=O)c3c(F)cccc3F)CC2)c(F)c1`, the half-inhibitory concentration (IC50) was < 5 µM.

As for `Cn1nc(C(C)(C)C)cc1NC(=O)Nc1cc(F)cc(OC2CCN(C(=O)c3cccc4[nH]ccc34)CC2)c1`, the IC50 was < 5 µM.

Regarding `Cn1nc(C(C)(C)C)cc1NC(=O)Nc1cc(F)cc(OC2CCN(C(=O)c3ccccc3C(F)(F)F)CC2)c1`, the half-maximal inhibitory concentration (IC50) is < 5 µM.

Turning to `COc1ccc(C(=O)N2CCC(Oc3ccc(NC(=O)Nc4cc(C(C)(C)C)nn4C)cc3)CC2)c(OC)n1`, the IC50 is < 5 µM.

Take `Cn1nc(C(C)(C)C)cc1NC(=O)Nc1cccc(OC2CCN(C(=O)c3ccc(Br)s3)CC2)c1`: the IC50 was < 5 µM.

For the compound `Cn1nc(C(C)(C)C)cc1NC(=O)Nc1cccc(OC2CCN(C(=O)c3cc[nH]c3)CC2)c1`, the IC50 is < 5 µM.

With `Cn1nc(C(C)(C)C)cc1NC(=O)Nc1ccc(OC2CCN(C(=O)c3cc[nH]c3)CC2)cc1`, the half-inhibitory concentration (IC50) is < 5 µM.

Regarding `Cn1nc(C(C)(C)C)cc1NC(=O)Nc1ccc(CN2CCN(C(=O)c3ccc(F)cc3F)CC2)cc1`, the IC50 was < 5 µM.

Take `Cc1ccc(-n2nc(C(C)(C)C)cc2NC(=O)Nc2ccc(N3CCN(C(=O)c4c(Cl)cccc4Cl)CC3)cc2)cc1`: the IC50 is < 5 µM.

With `CCn1nc(C(C)(C)C)cc1NC(=O)Nc1ccc(CN2CCN(C(=O)c3c(F)cccc3F)CC2)cc1`, the IC50 is < 5 µM.

For `Cn1nc(C(C)(C)C)cc1NC(=O)Nc1ccc(OC2CCN(C(=O)c3ccccc3C(F)(F)F)CC2)cc1`, the IC50 is < 5 µM.

Regarding `Cc1ccc(-n2nc(C(C)(C)C)cc2NC(=O)Nc2ccc(CN3CCN(C(=O)c4c(Cl)cccc4Cl)CC3)cc2)cc1`, the IC50 is < 5 µM.

`Cn1nc(C(C)(C)C)cc1NC(=O)Nc1ccc(OC2CCN(S(C)(=O)=O)CC2)cc1`: the IC50 was < 5 µM.

Regarding `CC(C)C(=O)N1CCC(Oc2ccc(NC(=O)Nc3cc(C(C)(C)C)nn3C)cc2)CC1`, the IC50 was < 5 µM.

Consider `Cn1nc(C(C)(C)C)cc1NC(=O)Nc1ccc(OC2CCN(C(=O)c3c(Cl)cncc3Cl)CC2)cc1`, for which the IC50 was < 5 µM.

With `Cn1nc(C(C)(C)C)cc1NC(=O)Nc1ccc(CN2CCN(C(=O)c3c(F)cccc3F)CC2)cc1`, the IC50 is 0.01 µM and < 5 µM.

As for `Cc1ccc(-n2nc(C(C)(C)C)cc2NC(=O)NC2CCN(C(=O)c3ccc(S(C)(=O)=O)cc3)CC2)cc1`, the IC50 was < 5 µM.

For the compound `Cn1nc(C(C)(C)C)cc1NC(=O)Nc1cccc(OC2CCN(C(=O)c3c(Cl)cncc3Cl)CC2)c1`, the IC50 is < 5 µM.

In the case of `Cc1ccc(-n2nc(C(C)(C)C)cc2NC(=O)Nc2ccc(N3CCN(C(=O)C4CC4)CC3)cc2)cc1`, the IC50 was < 5 µM.

With `Cc1ccc(-n2nc(C(C)(C)C)cc2NC(=O)Nc2ccc(N3CCN(S(=O)(=O)C(C)C)CC3)cc2)cc1`, the IC50 was < 5 µM.

As for `Cn1nc(C(C)(C)C)cc1NC(=O)Nc1ccc(OC2CCN(C(=O)c3c(F)cccc3Cl)CC2)cc1`, the IC50 was < 5 µM.

With `Cc1ccc(-n2nc(C(C)(C)C)cc2NC(=O)Nc2ccc(N3CCN(C(=O)C4CCCNC4)CC3)cc2)cc1` (centres undefined), the IC50 is < 5 µM.

Consider `Cc1ccc(-n2nc(C(C)(C)C)cc2NC(=O)Nc2ccc(N3CCN(C(=O)CC(C)(C)C)CC3)cc2)cc1`, for which the IC50 was < 5 µM.

Regarding `Cn1nc(C(C)(C)C)cc1NC(=O)Nc1cc(F)cc(OC2CCN(C(=O)C3(C)CC3(Cl)Cl)CC2)c1` (centres undefined), the IC50 was < 5 µM.

Turning to `Cn1nc(C(C)(C)C)cc1NC(=O)Nc1cccc(OC2CCN(C(=O)c3ccccc3OC(F)(F)F)CC2)c1`, the IC50 was < 5 µM.

Regarding `Cn1nc(C(C)(C)C)cc1NC(=O)Nc1cc(F)cc(OC2CCN(C(=O)c3ccc4cc[nH]c4c3)CC2)c1`, the IC50 is < 5 µM.

With `Cn1nc(C(C)(C)C)cc1NC(=O)Nc1ccc(CN2CCN(C(=O)c3ccncc3)CC2)cc1`, the IC50 is < 5 µM.

Turning to `Cn1nc(C(C)(C)C)cc1NC(=O)Nc1cc(F)cc(OC2CCN(C(=O)C3(C)CC3)CC2)c1`, the IC50 was < 5 µM.

For `Cc1ccsc1C(=O)N1CCC(Oc2cc(F)cc(NC(=O)Nc3cc(C(C)(C)C)nn3C)c2)CC1`, the IC50 is < 5 µM.

For `Cc1ccc(-n2nc(C(C)(C)C)cc2NC(=O)Nc2ccc(N3CCN(C(=O)C4(C)CC4)CC3)cc2)cc1`, the IC50 is < 5 µM.

Take `Cn1nc(C(C)(C)C)cc1NC(=O)Nc1ccc(OC2CCN(C(=O)C(C)(C)C)CC2)cc1`: the IC50 was < 5 µM.

Turning to `Cc1ccc(-n2nc(C(C)(C)C)cc2NC(=O)Nc2ccc(N3CCN(C(N)=O)CC3)cc2)cc1`, the IC50 was < 5 µM.

As to `Cn1nc(C(C)(C)C)cc1NC(=O)Nc1ccc(OC2CCN(C(=O)c3cccnc3Cl)CC2)cc1`, the IC50 was < 5 µM.

Consider `Cc1ccsc1C(=O)N1CCC(Oc2cccc(NC(=O)Nc3cc(C(C)(C)C)nn3C)c2)CC1`, for which the IC50 was < 5 µM.

As for `Cc1ccc(-n2nc(C(C)(C)C)cc2NC(=O)Nc2ccc(N3CCN(C(=O)C4CCC4)CC3)cc2)cc1`, the IC50 is < 5 µM.

Consider `Cn1nc(C(C)(C)C)cc1NC(=O)Nc1ccc(CN2CCN(C(=O)c3ccc(F)cc3F)CC2)c(F)c1`, for which the IC50 is < 5 µM.

With `Cc1ccc(-n2nc(C(C)(C)C)cc2NC(=O)Nc2ccc(N3CCN(C(=O)C4CC4C)CC3)cc2)cc1` (centres undefined), the half-inhibitory concentration (IC50) is < 5 µM.

`Cn1nc(C(C)(C)C)cc1NC(=O)Nc1cc(F)cc(OC2CCN(C(=O)C(C)(C)C)CC2)c1` yielded an IC50 of 0.019 µM.

As to `Cn1nc(C(C)(C)C)cc1NC(=O)Nc1ccc(OC2CCN(C(=O)Oc3ccccc3C(F)(F)F)CC2)cc1`, the IC50 is < 5 µM.

For the compound `Cn1nc(C(C)(C)C)cc1NC(=O)Nc1ccc(OC2CCN(C(=O)OC(C)(C)C)CC2)cc1`, the IC50 was < 5 µM.

Regarding `Cn1nc(C(C)(C)C)cc1NC(=O)Nc1cc(F)cc(OC2CCN(C(=O)c3c(F)cccc3Cl)CC2)c1`, the IC50 was < 5 µM.

As to `Cc1ccc(-n2nc(C(C)(C)C)cc2NC(=O)Nc2ccc(OCCC3CCN(C(=O)c4c(Cl)cccc4Cl)CC3)c3ccccc23)cc1`, the IC50 was < 5 µM.

Take `Cn1nc(C(C)(C)C)cc1NC(=O)Nc1cc(F)cc(OC2CCN(C(=O)c3cccc4cc[nH]c34)CC2)c1`: the IC50 was < 5 µM.

On to `Cn1nc(C(C)(C)C)cc1NC(=O)Nc1ccc(CN2CCN(C(=O)c3ccc(Cl)cc3Cl)CC2)cc1`, for which the IC50 is < 5 µM.

With `Cn1nc(C(C)(C)C)cc1NC(=O)Nc1ccc(OC2CCN(C(=O)c3c(F)cccc3F)CC2)cc1`, the IC50 was < 5 µM.

In the case of `Cc1ccc(-n2nc(C(C)(C)C)cc2NC(=O)Nc2ccc(N3CCN(C(=O)C4CCOC4)CC3)cc2)cc1` (centres undefined), the IC50 was < 5 µM.

As to `Cc1ccc(-n2nc(C(C)(C)C)cc2NC(=O)Nc2ccc(N3CCN(C(=O)C(C)C)CC3)cc2)cc1`, the IC50 was < 5 µM.

Usually IC50 stands for the concentration needed to halve the response being measured. A higher IC50 goes with a need for much substance.
